# Values quoted from earlier work in patent EP0580641B1, “NEW THALIDOMIDE DERIVATIVES, METHOD OF MANUFACTURE AND USE THEREOF IN MEDICAMENTS” (Grünenthal GmbH, priority 1991, dated 1992).
# Details: cited from Arch. Pharm. 321, 371 (1988)
smiles,measurement,value
"O=C1CCC(N2C(=O)c3ccccc3C2=O)C(=O)N1 (stereo not shown) [Thalidomid, 3-Phthalimido-piperidin-2,6-dion]",Wasserlöslichkeit,"0,012 mg/ml"
